Reference: ChEMBL document CHEMBL4507304, “Data for DCP probe TP-021” (2021)

Key:
[1] = test system: Tyrosine-protein kinase ABL1 (Homo sapiens), P00519 [H396P]; conditions: Compound concentration 1000.0 nM
[2] = target: Activin receptor type-1 (Homo sapiens) (UniProt Q04771); conditions: Compound concentration 1000.0 nM
[3] = target: Activin receptor type-1B (Homo sapiens) (UniProt P36896); conditions: Compound concentration 1000.0 nM
[4] = target: ALK tyrosine kinase receptor (Homo sapiens) (UniProt Q9UM73); conditions: Compound concentration 1000.0 nM
[5] = target: Cytoplasmic tyrosine-protein kinase BMX (Homo sapiens) (UniProt P51813); conditions: Compound concentration 1000.0 nM
[6] = target: Serine/threonine-protein kinase BRSK2 (Homo sapiens) (UniProt Q8IWQ3); conditions: Compound concentration 1000.0 nM
[7] = target: Calcium/calmodulin-dependent protein kinase type II subunit alpha (Homo sapiens) (UniProt Q9UQM7); conditions: Compound concentration 1000.0 nM
[8] = target: Calcium/calmodulin-dependent protein kinase type II subunit beta (Homo sapiens) (UniProt Q13554); conditions: Compound concentration 1000.0 nM
[9] = target: Cyclin-dependent kinase 4 (Homo sapiens) (UniProt P11802); conditions: Compound concentration 1000.0 nM
[10] = target: Cyclin-dependent kinase 4 (Homo sapiens) (UniProt P11802); conditions: Compound concentration 1000.0 nM; remark: listed apart in the source
[11] = target: Casein kinase I isoform gamma-2 (Homo sapiens) (UniProt P78368); conditions: Compound concentration 1000.0 nM
[12] = target: Serine/threonine-protein kinase DCLK2 (Homo sapiens) (UniProt Q8N568); conditions: Compound concentration 1000.0 nM
[13] = target: Serine/threonine-protein kinase MRCK gamma (Homo sapiens) (UniProt Q6DT37); conditions: Compound concentration 1000.0 nM
[14] = target: Dual specificity tyrosine-phosphorylation-regulated kinase 2 (Homo sapiens) (UniProt Q92630); conditions: Compound concentration 1000.0 nM
[15] = target: Ephrin type-A receptor 1 (Homo sapiens) (UniProt P21709); conditions: Compound concentration 1000.0 nM
[16] = target: Ephrin type-A receptor 7 (Homo sapiens) (UniProt Q15375); conditions: Compound concentration 1000.0 nM
[17] = target: Ephrin type-B receptor 1 (Homo sapiens) (UniProt P54762); conditions: Compound concentration 1000.0 nM
[18] = target: Mitogen-activated protein kinase 4 (Homo sapiens) (UniProt P31152); conditions: Compound concentration 1000.0 nM
[19] = target: Tyrosine-protein kinase Fgr (Homo sapiens) (UniProt P09769); conditions: Compound concentration 1000.0 nM
[20] = target: Rhodopsin kinase GRK1 (Homo sapiens) (UniProt Q15835); conditions: Compound concentration 1000.0 nM
[21] = target: G protein-coupled receptor kinase 3 (Homo sapiens) (UniProt P35626); conditions: Compound concentration 1000.0 nM
[22] = target: Tyrosine-protein kinase JAK1 (Homo sapiens) (UniProt P23458); conditions: Compound concentration 1000.0 nM
[23] = target: Tyrosine-protein kinase JAK2 (Homo sapiens) (UniProt O60674); conditions: Compound concentration 1000.0 nM
[24] = target: Serine/threonine-protein kinase LATS1 (Homo sapiens) (UniProt O95835); conditions: Compound concentration 1000.0 nM
[25] = target: Leukocyte tyrosine kinase receptor (Homo sapiens) (UniProt P29376); conditions: Compound concentration 1000.0 nM
[26] = target: Mitogen-activated protein kinase kinase kinase 2 (Homo sapiens) (UniProt Q9Y2U5); conditions: Compound concentration 1000.0 nM
[27] = target: Tyrosine-protein kinase Mer (Homo sapiens) (UniProt Q12866); conditions: Compound concentration 1000.0 nM
[28] = target: Mitogen-activated protein kinase kinase kinase 11 (Homo sapiens) (UniProt Q16584); conditions: Compound concentration 1000.0 nM
[29] = target: Macrophage-stimulating protein receptor (Homo sapiens) (UniProt Q04912); conditions: Compound concentration 1000.0 nM
[30] = target: Serine/threonine-protein kinase Nek4 (Homo sapiens) (UniProt P51957); conditions: Compound concentration 1000.0 nM
[31] = target: Cyclin-dependent kinase 18 (Homo sapiens) (UniProt Q07002); conditions: Compound concentration 1000.0 nM
[32] = target: Phosphatidylinositol 4-phosphate 3-kinase C2 domain-containing subunit beta (Homo sapiens) (UniProt O00750); conditions: Compound concentration 1000.0 nM
[33] = target: Phosphatidylinositol 3-kinase C2 domain-containing subunit gamma (Homo sapiens) (UniProt O75747); conditions: Compound concentration 1000.0 nM
[34] = target: Serine/threonine-protein kinase pim-3 (Homo sapiens) (UniProt Q86V86); conditions: Compound concentration 1000.0 nM
[35] = target: Serine/threonine-protein kinase PLK1 (Homo sapiens) (UniProt P53350); conditions: Compound concentration 1000.0 nM
[36] = target: Serine/threonine-protein kinase PRP4 homolog (Homo sapiens) (UniProt Q13523); conditions: Compound concentration 1000.0 nM
[37] = target: Proto-oncogene tyrosine-protein kinase ROS (Homo sapiens) (UniProt P08922); conditions: Compound concentration 1000.0 nM
[38] = target: Serine/threonine-protein kinase TAO2 (Homo sapiens) (UniProt Q9UL54); conditions: Compound concentration 1000.0 nM
[39] = target: Tyrosine-protein kinase Tec (Homo sapiens) (UniProt P42680); conditions: Compound concentration 1000.0 nM
[40] = target: Dual specificity testis-specific protein kinase 1 (Homo sapiens) (UniProt Q15569); conditions: Compound concentration 1000.0 nM
[41] = target: NT-3 growth factor receptor (Homo sapiens) (UniProt Q16288); conditions: Compound concentration 1000.0 nM
[42] = target: Testis-specific serine/threonine-protein kinase 3 (Homo sapiens) (UniProt Q96PN8); conditions: Compound concentration 1000.0 nM
[43] = target: 5-hydroxytryptamine receptor 1A (Homo sapiens) (UniProt P08908); conditions: Compound concentration 10.0 uM
[44] = target: 5-hydroxytryptamine receptor 1B (Homo sapiens) (UniProt P28222); conditions: Compound concentration 10.0 uM
[45] = target: Histamine H3 receptor (Homo sapiens) (UniProt Q9Y5N1); conditions: Compound concentration 10.0 uM
[46] = target: Alpha-1B adrenergic receptor (Homo sapiens) (UniProt P35368); conditions: Compound concentration 10.0 uM
Alpha-1B adrenergic receptor (Homo sapiens), sequence (P35368 whole entry): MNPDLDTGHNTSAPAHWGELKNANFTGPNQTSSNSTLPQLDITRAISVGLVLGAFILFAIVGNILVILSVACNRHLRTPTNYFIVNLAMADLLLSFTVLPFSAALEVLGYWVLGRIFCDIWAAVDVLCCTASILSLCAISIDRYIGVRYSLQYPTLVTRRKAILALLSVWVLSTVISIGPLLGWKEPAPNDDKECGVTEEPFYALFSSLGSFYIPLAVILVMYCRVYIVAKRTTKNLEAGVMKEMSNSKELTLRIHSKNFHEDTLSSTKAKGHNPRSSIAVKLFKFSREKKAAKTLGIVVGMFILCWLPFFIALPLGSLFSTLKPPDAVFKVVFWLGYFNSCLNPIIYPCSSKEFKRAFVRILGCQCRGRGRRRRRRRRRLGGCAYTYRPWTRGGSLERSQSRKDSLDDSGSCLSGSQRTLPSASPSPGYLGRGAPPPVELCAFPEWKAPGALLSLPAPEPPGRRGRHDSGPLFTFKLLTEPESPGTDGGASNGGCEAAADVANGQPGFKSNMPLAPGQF

Cyclin-dependent kinase 4 (Homo sapiens), sequence (P11802 whole entry, canonical isoform): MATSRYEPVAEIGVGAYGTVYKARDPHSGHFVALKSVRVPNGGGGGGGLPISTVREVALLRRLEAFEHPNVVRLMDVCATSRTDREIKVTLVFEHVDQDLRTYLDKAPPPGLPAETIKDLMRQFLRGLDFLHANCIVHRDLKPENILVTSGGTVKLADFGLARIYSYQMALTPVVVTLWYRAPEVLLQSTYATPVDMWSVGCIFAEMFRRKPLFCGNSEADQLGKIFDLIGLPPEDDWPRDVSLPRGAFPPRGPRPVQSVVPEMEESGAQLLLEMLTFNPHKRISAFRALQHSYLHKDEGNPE
Activin receptor type-1B (Homo sapiens), sequence (P36896 whole entry): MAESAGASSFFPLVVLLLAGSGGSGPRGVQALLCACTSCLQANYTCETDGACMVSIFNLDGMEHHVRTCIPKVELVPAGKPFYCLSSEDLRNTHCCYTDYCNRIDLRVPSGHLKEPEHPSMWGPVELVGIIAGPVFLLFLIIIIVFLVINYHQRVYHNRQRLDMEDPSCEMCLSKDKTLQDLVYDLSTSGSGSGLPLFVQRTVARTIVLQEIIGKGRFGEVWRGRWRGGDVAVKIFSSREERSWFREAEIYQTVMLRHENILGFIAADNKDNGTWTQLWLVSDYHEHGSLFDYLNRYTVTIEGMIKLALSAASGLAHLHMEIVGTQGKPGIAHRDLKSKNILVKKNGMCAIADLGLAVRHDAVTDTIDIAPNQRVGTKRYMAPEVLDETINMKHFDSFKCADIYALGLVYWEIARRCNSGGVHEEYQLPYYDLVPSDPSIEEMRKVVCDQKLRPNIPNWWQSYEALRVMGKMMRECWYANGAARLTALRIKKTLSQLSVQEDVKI
Casein kinase I isoform gamma-2 (Homo sapiens), sequence (P78368 whole entry, looked up, canonical isoform): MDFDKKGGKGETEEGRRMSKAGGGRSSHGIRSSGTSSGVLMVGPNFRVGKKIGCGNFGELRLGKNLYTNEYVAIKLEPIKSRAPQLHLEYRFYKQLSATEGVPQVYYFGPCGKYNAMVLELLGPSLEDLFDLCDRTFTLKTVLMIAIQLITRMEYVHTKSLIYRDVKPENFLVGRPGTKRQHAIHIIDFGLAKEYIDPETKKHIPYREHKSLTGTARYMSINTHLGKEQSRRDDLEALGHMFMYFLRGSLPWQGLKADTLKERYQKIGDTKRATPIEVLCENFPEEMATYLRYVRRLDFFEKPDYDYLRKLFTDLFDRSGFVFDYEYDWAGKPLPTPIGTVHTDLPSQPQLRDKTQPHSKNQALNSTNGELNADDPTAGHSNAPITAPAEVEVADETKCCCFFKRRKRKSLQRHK
5-hydroxytryptamine receptor 1B (Homo sapiens), sequence (P28222 whole entry): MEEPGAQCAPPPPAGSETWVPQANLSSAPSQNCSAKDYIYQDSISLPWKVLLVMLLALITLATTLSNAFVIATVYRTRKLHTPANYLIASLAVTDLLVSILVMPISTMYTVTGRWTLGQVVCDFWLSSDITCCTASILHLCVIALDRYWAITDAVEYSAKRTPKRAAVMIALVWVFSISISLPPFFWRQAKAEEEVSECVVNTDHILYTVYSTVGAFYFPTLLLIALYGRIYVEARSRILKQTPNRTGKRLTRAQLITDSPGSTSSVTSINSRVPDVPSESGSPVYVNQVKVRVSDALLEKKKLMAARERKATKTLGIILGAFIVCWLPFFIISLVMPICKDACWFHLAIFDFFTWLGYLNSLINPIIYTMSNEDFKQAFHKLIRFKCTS
Serine/threonine-protein kinase Nek4 (Homo sapiens), sequence (P51957 whole entry, looked up): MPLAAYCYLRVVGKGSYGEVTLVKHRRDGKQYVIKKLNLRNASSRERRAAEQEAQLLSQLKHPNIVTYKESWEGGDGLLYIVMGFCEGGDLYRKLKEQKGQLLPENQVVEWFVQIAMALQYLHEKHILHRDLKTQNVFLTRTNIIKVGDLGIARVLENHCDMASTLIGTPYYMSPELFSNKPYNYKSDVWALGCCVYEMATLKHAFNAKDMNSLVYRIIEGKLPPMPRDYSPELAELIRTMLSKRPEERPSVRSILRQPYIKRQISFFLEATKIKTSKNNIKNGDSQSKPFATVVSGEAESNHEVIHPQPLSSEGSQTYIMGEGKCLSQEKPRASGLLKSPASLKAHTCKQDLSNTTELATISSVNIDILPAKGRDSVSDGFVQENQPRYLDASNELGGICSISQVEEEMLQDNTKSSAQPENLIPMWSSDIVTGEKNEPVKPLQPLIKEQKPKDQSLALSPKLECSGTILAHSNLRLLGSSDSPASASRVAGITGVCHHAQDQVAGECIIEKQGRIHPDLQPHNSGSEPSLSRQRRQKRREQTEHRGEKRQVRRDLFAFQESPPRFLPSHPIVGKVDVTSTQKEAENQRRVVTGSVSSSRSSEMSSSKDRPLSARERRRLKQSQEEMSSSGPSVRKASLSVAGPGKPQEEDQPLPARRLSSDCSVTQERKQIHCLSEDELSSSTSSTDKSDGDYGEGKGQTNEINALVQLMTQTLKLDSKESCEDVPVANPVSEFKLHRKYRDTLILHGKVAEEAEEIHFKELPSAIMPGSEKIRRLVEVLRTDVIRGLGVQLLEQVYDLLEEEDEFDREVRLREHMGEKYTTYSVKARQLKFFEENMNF
Rhodopsin kinase GRK1 (Homo sapiens), sequence (Q15835 whole entry): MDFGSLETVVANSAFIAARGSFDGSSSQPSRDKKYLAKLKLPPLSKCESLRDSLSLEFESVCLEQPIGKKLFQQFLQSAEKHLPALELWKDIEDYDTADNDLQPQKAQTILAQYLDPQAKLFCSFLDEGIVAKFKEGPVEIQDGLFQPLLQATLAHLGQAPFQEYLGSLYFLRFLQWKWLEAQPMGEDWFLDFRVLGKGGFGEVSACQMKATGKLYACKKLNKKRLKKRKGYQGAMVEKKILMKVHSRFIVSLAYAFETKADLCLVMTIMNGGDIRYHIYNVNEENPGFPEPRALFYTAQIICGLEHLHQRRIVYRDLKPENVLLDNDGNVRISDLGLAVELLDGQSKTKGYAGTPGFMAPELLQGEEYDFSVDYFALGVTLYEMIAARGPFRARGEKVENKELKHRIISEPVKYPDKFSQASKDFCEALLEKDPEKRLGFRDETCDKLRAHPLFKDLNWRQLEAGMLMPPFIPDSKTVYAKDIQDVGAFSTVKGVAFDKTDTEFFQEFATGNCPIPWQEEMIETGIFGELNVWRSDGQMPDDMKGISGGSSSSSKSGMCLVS
NT-3 growth factor receptor (Homo sapiens), sequence (Q16288 32-839 limits assumed): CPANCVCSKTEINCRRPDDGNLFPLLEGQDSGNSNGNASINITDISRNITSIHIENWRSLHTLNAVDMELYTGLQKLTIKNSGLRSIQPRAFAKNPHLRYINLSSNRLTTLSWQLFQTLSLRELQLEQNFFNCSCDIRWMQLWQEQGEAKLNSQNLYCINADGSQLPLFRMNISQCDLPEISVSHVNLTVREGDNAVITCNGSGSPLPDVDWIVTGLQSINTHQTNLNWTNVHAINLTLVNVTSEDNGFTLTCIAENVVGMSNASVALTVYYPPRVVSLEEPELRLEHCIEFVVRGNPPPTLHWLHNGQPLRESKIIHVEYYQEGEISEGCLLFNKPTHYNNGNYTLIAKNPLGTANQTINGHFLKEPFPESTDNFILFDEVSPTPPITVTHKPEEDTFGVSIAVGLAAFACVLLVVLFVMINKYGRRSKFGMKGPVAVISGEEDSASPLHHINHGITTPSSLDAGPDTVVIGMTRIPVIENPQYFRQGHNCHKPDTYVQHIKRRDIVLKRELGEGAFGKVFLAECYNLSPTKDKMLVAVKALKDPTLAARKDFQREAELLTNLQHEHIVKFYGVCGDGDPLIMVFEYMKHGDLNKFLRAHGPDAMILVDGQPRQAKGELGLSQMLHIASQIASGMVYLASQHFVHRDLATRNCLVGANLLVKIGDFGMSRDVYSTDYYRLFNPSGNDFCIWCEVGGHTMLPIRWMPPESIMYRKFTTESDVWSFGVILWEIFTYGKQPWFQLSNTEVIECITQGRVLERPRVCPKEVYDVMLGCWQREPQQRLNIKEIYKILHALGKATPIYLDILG
Testis-specific serine/threonine-protein kinase 3 (Homo sapiens), sequence (Q96PN8 whole entry): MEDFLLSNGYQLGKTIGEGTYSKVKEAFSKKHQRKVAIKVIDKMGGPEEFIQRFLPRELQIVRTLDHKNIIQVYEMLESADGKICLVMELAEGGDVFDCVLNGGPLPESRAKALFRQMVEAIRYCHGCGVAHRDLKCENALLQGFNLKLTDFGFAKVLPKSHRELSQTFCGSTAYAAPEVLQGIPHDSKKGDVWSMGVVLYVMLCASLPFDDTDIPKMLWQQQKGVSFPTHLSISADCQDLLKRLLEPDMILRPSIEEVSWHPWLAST

N#Cc1ccc(Nc2ccc3[nH]c(=O)[nH]c3c2)c(Cl)c1
inactive: residual activity [1] 95% | residual activity [2] 89% | residual activity [3] 100% | residual activity [4] 100% | residual activity [5] 100% | residual activity [6] 100% | residual activity [7] 84% | residual activity [8] 91% | residual activity [9] 100% | residual activity [10] 86% | residual activity [11] 100% | residual activity [12] 100% | residual activity [13] 100% | residual activity [14] 85% | residual activity [15] 91% | residual activity [16] 100% | residual activity [17] 93% | residual activity [18] 100% | residual activity [19] 100% | residual activity [20] 100% | residual activity [21] 100% | residual activity [22] 100% | residual activity [23] 100% | residual activity [24] 76% | residual activity [25] 100% | residual activity [26] 100% | residual activity [27] 100% | residual activity [28] 100% | residual activity [29] 100% | residual activity [30] 100% | residual activity [31] 100% | residual activity [32] 99% | residual activity [33] 95% | residual activity [34] 100% | residual activity [35] 100% | residual activity [36] 99% | residual activity [37] 100% | residual activity [38] 100% | residual activity [39] 96% | residual activity [40] 100% | residual activity [41] 100% | residual activity [42] 100% | inhibition [43] -5.44% | inhibition [44] 6.7% | inhibition [45] 8.47% | inhibition [46] 10%

O=C1CCc2cc(Nc3cc(OC4CCOCC4)c([N+](=O)[O-])cc3Cl)ccc2N1
inactive: residual activity [1] 85% | residual activity [2] 100% | residual activity [3] 93% | residual activity [4] 82% | residual activity [5] 69% | residual activity [6] 100% | residual activity [7] 85% | residual activity [8] 90% | residual activity [9] 81% | residual activity [10] 78% | residual activity [11] 88% | residual activity [12] 100% | residual activity [13] 99% | residual activity [14] 97% | residual activity [15] 81% | residual activity [16] 75% | residual activity [17] 83% | residual activity [18] 100% | residual activity [19] 100% | residual activity [20] 100% | residual activity [21] 100% | residual activity [22] 94% | residual activity [23] 100% | residual activity [24] 81% | residual activity [25] 100% | residual activity [26] 100% | residual activity [27] 100% | residual activity [28] 100% | residual activity [29] 100% | residual activity [30] 100% | residual activity [31] 100% | residual activity [32] 89% | residual activity [33] 94% | residual activity [34] 100% | residual activity [35] 100% | residual activity [36] 100% | residual activity [37] 100% | residual activity [38] 82% | residual activity [39] 82% | residual activity [40] 92% | residual activity [41] 100% | residual activity [42] 100% | inhibition [43] -4.09% | inhibition [44] 14.3% | inhibition [45] 15.1% | inhibition [46] 17.2%
